According to patent publication US20030186967A1, “Acylresorcinol derivatives are selective vitronectin receptor inhibitors” (American Home Products Corporation, priority 1998, published 2003):

molecular target: T1, Vitronectin receptor αVβ3 (Homo sapiens, UniProt P05106+P06756); assay: Vitronectin Receptor αVβ3 Binding Assay; conditions: read-out: VnR (IC50μM)
T1 construct: expressed in transfected cells; host or cells: 512P5 cells (plasma membrane preparation)
T1 sequence (P06756 31-889 limits assumed): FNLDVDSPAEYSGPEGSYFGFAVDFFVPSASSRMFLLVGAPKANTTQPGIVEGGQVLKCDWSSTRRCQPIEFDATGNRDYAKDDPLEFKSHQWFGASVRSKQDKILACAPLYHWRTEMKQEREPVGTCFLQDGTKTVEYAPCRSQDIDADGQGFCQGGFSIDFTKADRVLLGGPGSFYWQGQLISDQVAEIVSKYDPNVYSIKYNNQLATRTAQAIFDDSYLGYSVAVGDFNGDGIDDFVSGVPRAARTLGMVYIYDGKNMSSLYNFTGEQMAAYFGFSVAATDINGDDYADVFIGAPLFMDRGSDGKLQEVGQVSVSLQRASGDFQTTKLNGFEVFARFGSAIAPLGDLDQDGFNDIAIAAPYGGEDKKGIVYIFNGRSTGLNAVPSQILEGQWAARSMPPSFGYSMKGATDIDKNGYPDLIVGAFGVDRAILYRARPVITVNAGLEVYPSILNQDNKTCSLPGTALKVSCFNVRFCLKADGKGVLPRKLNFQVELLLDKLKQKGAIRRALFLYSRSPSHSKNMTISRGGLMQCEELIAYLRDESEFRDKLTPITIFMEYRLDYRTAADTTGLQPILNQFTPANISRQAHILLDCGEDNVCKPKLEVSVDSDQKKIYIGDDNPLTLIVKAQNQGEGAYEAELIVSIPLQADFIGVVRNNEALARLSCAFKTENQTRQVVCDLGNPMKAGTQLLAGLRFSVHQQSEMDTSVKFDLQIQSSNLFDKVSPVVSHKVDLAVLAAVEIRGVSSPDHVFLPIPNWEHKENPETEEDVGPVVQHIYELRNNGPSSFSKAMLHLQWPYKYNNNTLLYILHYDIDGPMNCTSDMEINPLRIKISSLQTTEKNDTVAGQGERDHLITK
T1 sequence (P06756 891-1048 partner limits assumed): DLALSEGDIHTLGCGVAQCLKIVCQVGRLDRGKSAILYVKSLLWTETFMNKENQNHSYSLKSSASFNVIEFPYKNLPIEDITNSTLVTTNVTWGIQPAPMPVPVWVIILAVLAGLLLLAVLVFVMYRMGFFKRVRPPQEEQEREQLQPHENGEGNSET
T1 sequence (P05106 27-788): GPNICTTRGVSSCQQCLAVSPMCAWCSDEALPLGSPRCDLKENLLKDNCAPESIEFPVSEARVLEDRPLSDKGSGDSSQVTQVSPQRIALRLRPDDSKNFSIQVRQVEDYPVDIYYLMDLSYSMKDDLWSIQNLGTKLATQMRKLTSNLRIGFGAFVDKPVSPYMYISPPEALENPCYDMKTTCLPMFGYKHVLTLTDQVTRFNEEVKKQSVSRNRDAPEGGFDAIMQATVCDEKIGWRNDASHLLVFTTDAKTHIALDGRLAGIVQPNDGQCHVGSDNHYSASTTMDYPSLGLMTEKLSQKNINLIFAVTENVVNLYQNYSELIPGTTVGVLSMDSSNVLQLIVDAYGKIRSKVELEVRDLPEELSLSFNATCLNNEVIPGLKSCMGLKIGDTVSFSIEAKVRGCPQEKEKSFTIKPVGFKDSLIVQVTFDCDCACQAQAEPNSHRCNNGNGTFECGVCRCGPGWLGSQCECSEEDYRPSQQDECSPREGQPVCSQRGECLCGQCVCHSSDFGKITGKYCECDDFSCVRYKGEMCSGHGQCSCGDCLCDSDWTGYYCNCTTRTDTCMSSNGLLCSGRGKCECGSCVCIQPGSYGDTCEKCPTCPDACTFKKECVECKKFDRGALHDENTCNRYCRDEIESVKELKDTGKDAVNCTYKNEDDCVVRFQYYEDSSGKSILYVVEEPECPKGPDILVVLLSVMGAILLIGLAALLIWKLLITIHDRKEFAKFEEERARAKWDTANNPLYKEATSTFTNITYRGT

`COC(=O)N[C@@H](CNC(=O)c1ccc(OCCNc2ncccn2)cc1O)C(=O)O` [Example 65, (2S)-3-({2-hydroxy-4-[2-(pyrimidin-2-ylamino)ethoxy]benzoyl}amino)-2-[(methoxycarbonyl)amino]propanoic acid] and `CCOC(=O)N[C@@H](CNC(=O)c1ccc(OCCNc2ncccn2)cc1O)C(=O)O` [Example 66, (2S)-2-[(ethoxycarbonyl)amino]-3-({2-hydroxy-4-[2-(pyrimidin-2-ylamino)-ethoxy]benzoyl}amino)propanoic acid] are the same in IC50: 100 µM for the first, 100 µM for the second.

`CCCOC(=O)N[C@@H](CNC(=O)c1ccc(OCCNc2ncccn2)cc1O)C(=O)O` [Example 67, (2S)-3-({2-hydroxy-4-[2-(pyrimidin-2-ylamino)ethoxy]benzoyl}amino)-2-[(propoxycarbonyl)amino]propanoic acid] and `C=CCCOC(=O)N[C@@H](CNC(=O)c1ccc(OCCNc2ncccn2)cc1O)C(=O)O` [Example 70, (2S)-2-{[(but-3-enyloxy)carbonyl]amino}-3-({2-hydroxy-4-[2-(pyrimidin-2-ylamino)ethoxy]benzoyl}amino)propanoic acid] are the same in IC50: 100 µM for the first, 100 µM for the second.

`CC(C)OC(=O)N[C@@H](CNC(=O)c1ccc(OCCNc2ncccn2)cc1O)C(=O)O` [Example 68, (2S)-3-({2-hydroxy-4-[2-(pyrimidin-2-ylamino)ethoxy]benzoyl}amino)-2-[(isopropoxycarbonyl)amino]propanoic acid] and `C=CCOC(=O)N[C@@H](CNC(=O)c1ccc(OCCNc2ncccn2)cc1O)C(=O)O` [Example 69, (2S)-2-{[(allyloxy)carbonyl]amino}-3-({2-hydroxy-4-[2-(pyrimidin-2-ylamino)ethoxy]benzoyl}amino)propanoic acid] are the same in IC50: 100 µM for the first, 100 µM for the second.

`O=C(Nc1ccccc1)N[C@@H](CNC(=O)c1ccc(OCCNc2ncccn2)cc1O)C(=O)O` [Example 71, (2S)-2-[(anilinocarbonyl)amino]-3-({2-hydroxy-4-[2-(pyrimidin-2-ylamino)ethoxy]-benzoyl}amino)propanoic acid] and `O=C(NCc1ccccc1)N[C@@H](CNC(=O)c1ccc(OCCNc2ncccn2)cc1O)C(=O)O` [Example 92, (2S)-2-{[(benzylamino)carbonyl]amino}-3-({2-hydroxy-4-[2-(pyrimidin-2-ylamino)ethoxy]benzoyl}amino)propanoic acid] cannot be ordered by IC50: > 1 µM for the first, > 1 µM for the second.

`CC(C)(C)NC(=O)N[C@@H](CNC(=O)c1ccc(OCCNc2ncccn2)cc1O)C(=O)O` [Example 72, (2S)-2-{[(tert-butylamino)carbonyl]amino}-3-({2-hydroxy-4-[2-(pyrimidin-2-ylamino)ethoxy]benzoyl}amino)propanoic acid] and `CCCCNC(=O)N[C@@H](CNC(=O)c1ccc(OCCNc2ncccn2)cc1O)C(=O)O` [Example 73, (2S)-2-{[(butylamino)carbonyl]amino}-3-({2-hydroxy-4-[2-(pyrimidin-2-ylamino)ethoxy]benzoyl}amino)propanoic acid] cannot be ordered by IC50: > 1 µM for the first, > 1 µM for the second.

`Cc1ccccc1NC(=O)N[C@@H](CNC(=O)c1ccc(OCCNc2ncccn2)cc1O)C(=O)O` [Example 78, (2S)-3-({2-hydroxy-4-[2-(pyrimidin-2-ylamino)ethoxy]benzoyl}amino)-2-[(2-toluidinocarbonyl)amino]propanoic acid] and `O=C(Nc1ccccc1Cl)N[C@@H](CNC(=O)c1ccc(OCCNc2ncccn2)cc1O)C(=O)O` [Example 80, (2S)-2-{[(2-chloroanilino)carbonyl]amino}-3-({2-hydroxy-4-[2-(pyrimidin-2-ylamino)ethoxy]benzoyl}amino)propanoic acid] cannot be ordered by IC50: > 1 µM for the first, > 1 µM for the second.

`COc1ccccc1NC(=O)N[C@@H](CNC(=O)c1ccc(OCCNc2ncccn2)cc1O)C(=O)O` [Example 79, (2S)-3-({2-hydroxy-4-[2-(pyrimidin-2-ylamino)ethoxy]benzoyl}amino)-2-{[(2-methoxyanilino)carbonyl]amino}propanoic acid] and `O=C(Nc1ccccc1Br)N[C@@H](CNC(=O)c1ccc(OCCNc2ncccn2)cc1O)C(=O)O` [Example 81, (2S)-2-{[(2-bromoanilino)carbonyl]amino}-3-({2-hydroxy-4-[2-(pyrimidin-2-ylamino)ethoxy]benzoyl}amino)propanoic acid] cannot be ordered by IC50: > 1 µM for the first, > 1 µM for the second.

`O=C(Nc1ccccc1-c1ccccc1)N[C@@H](CNC(=O)c1ccc(OCCNc2ncccn2)cc1O)C(=O)O` [Example 82, (2S)-2-{[([1,1′-biphenyl]-2-ylamino)carbonyl]amino}-3-({2-hydroxy-4-[2-(pyrimidin-2-ylamino)ethoxy]benzoyl}amino)propanoic acid] and `O=C(NCCc1ccccc1)N[C@@H](CNC(=O)c1ccc(OCCNc2ncccn2)cc1O)C(=O)O` [Example 93, (2S)-3-({2-hydroxy-4-[2-(pyrimidin-2-ylamino)ethoxy]benzoyl}amino)-2-({[(2phenylethyl)amino]carbonyl}amino)propanoic acid] cannot be ordered by IC50: > 1 µM for the first, > 1 µM for the second.

`Cc1ccc(NC(=O)N[C@@H](CNC(=O)c2ccc(OCCNc3ncccn3)cc2O)C(=O)O)cc1` [Example 83, (2S)-3-({2-hydroxy-4-[2-(pyrimidin-2-ylamino)ethoxy]benzoyl}amino)-2-[(4-toluidinocarbonyl)amino]propanoic acid] and `O=C(Nc1ccc(Cl)cc1)N[C@@H](CNC(=O)c1ccc(OCCNc2ncccn2)cc1O)C(=O)O` [Example 86, (2S)-2-{[(4-chloroanilino)carbonyl]amino}-3-({2-hydroxy-4-[2-(pyrimidin-2-ylamino)ethoxy]benzoyl}amino)propanoic acid] cannot be ordered by IC50: > 1 µM for the first, > 1 µM for the second.

`O=C(Nc1ccc(OC(F)(F)F)cc1)N[C@@H](CNC(=O)c1ccc(OCCNc2ncccn2)cc1O)C(=O)O` [Example 85, (2S)-3-({2-hydroxy-4-[2-(pyrimidin-2-ylamino)ethoxy]benzoyl}amino)-2-({[4-(trifluoromethoxy)anilino]carbonyl}amino)propanoic acid] and `O=C(Nc1ccc(F)cc1)N[C@@H](CNC(=O)c1ccc(OCCNc2ncccn2)cc1O)C(=O)O` [Example 87, (2S)-2-{[(4-fluoroanilino)carbonyl]amino}-3-({2-hydroxy-4-[2-(pyrimidin-2-ylamino)ethoxy]benzoyl}amino)propanoic acid] cannot be ordered by IC50: > 1 µM for the first, > 1 µM for the second.

`CC(=O)c1ccc(NC(=O)N[C@@H](CNC(=O)c2ccc(OCCNc3ncccn3)cc2O)C(=O)O)cc1` [Example 88, (2S)-2-{[(4-acetylanilino)carbonyl]amino}-3-({2-hydroxy-4-[2-(pyrimidin-2-ylamino)ethoxy]benzoyl}amino)propanoic acid] and `O=C(NC1CCCCC1)N[C@@H](CNC(=O)c1ccc(OCCNc2ncccn2)cc1O)C(=O)O` [Example 90, (2S)-2-{[(cyclohexylamino)carbonyl]amino}-3-({2-hydroxy-4-[2-(pyrimidin-2-ylamino)ethoxy]benzoyl}amino)propanoic acid] cannot be ordered by IC50: > 1 µM for the first, > 1 µM for the second.

Going from `CCCCCCCCNC(=O)N[C@@H](CNC(=O)c1ccc(OCCNc2ncccn2)cc1O)C(=O)O` [Example 94, (2S)-3-({2-hydroxy-4-[2-(pyrimidin-2-ylamino)ethoxy]benzoyl}amino)-2-{[(octylamino)carbonyl]amino}propanoic acid] to `CCCCCCOC(=O)N[C@@H](CNC(=O)c1ccc(OCCNC2=NCCN2)cc1O)C(=O)O` [Example 104, (2S)-3-({4-[2-(4,5-dihydro-1H-imidazol-2-ylamino)ethoxy]-2-hydroxybenzoyl}-amino)-2-{[(hexyloxy)carbonyl]amino}propanoic acid], the IC50 falls from > 1 µM to 0.086 µM. The second is the more potent here.

`CC(C)(C)COC(=O)N[C@@H](CNC(=O)c1ccc(OCCNC2=NCCN2)cc1O)C(=O)O` [Example 95] and `CCOC(=O)N[C@@H](CNC(=O)c1ccc(OCCNC2=NCCN2)cc1O)C(=O)O` [Example 98, (2S)-3-({4-[2-(4,5-dihydro-1H-imidazol-2-ylamino)ethoxy]-2-hydroxybenzoyl}-amino)-2-[(ethoxycarbonyl)amino]propanoic acid] are within 1.5-fold of each other in IC50: 0.105 µM for the first, 0.15 µM for the second.

`O=C(N[C@@H](CNC(=O)c1ccc(OCCNC2=NCCN2)cc1O)C(=O)O)OCc1ccccc1` [Example 96, (2S)-2-{[(benzyloxy)carbonyl]amino}-3-({4-[2-(4,5-dihydro-1H-imidazol-2-ylamino)ethoxy]-2-hydroxybenzoyl}amino)propanoic acid] and `CCCOC(=O)N[C@@H](CNC(=O)c1ccc(OCCNC2=NCCN2)cc1O)C(=O)O` [Example 99, (2S)-3-({4-[2-(4,5-dihydro-1H-imidazol-2-ylamino)ethoxy]-2-hydroxybenzoyl}-amino)-2-[(propoxycarbonyl)amino]propanoic acid] are within 1.5-fold of each other in IC50: 0.119 µM for the first, 0.088 µM for the second.

First: COC(=O)N[C@@H](CNC(=O)c1ccc(OCCNC2=NCCN2)cc1O)C(=O)O [Example 97, (2S)-3-({4-[2-(4,5-dihydro-1H-imidazol-2-ylamino)ethoxy]-2-hydroxybenzoyl}-amino)-2-[(methoxycarbonyl)amino]propanoic acid]
Second: CC(C)OC(=O)N[C@@H](CNC(=O)c1ccc(OCCNC2=NCCN2)cc1O)C(=O)O [Example 100, (2S)-3-({4-[2-(4,5-dihydro-1H-imidazol-2-ylamino)ethoxy]-2-hydroxybenzoyl}-amino)-2-[(isopropoxycarbonyl)amino]propanoic acid]
The IC50 of the first is 9.7-fold higher: 0.77 µM for the first, 0.079 µM for the second. The second is the more potent here.

`C=CCOC(=O)N[C@@H](CNC(=O)c1ccc(OCCNC2=NCCN2)cc1O)C(=O)O` [Example 101, (2S)-2-{[(allyloxy)carbonyl]amino}-3-({4-[2-(4,5-dihydro-1H-imidazol-2-ylamino)-ethoxy]-2-hydroxybenzoyl}amino)propanoic acid] and `C=CCCOC(=O)N[C@@H](CNC(=O)c1ccc(OCCNC2=NCCN2)cc1O)C(=O)O` [Example 102, (2S)-2-{[(but-3-enyloxy)carbonyl]amino}-3-({4-[2-(4,5-dihydro-1H-imidazol-2-ylamino)ethoxy]-2-hydroxybenzoyl}amino)propanoic acid] are within 1.5-fold of each other in IC50: 0.094 µM for the first, 0.069 µM for the second.

`C#CCOC(=O)N[C@@H](CNC(=O)c1ccc(OCCNC2=NCCN2)cc1O)C(=O)O` [Example 103, (2S)-3-({4-[2-(4,5-dihydro-1H-imidazol-2-ylamino)ethoxy]-2-hydroxybenzoyl}-amino)-2-{[(prop-2-ynyloxy)carbonyl]amino}propanoic acid] gave an IC50 of 0.21 µM.
